Laboratory results from patent US20250248924A1, “COMPOUNDS FROM FRUIT SEED EXTRACTS FOR MELANIN REDUCTION IN SKIN” (priority 2024, published 2025).

Experiments:
[1] = Solubility in the enzyme assay; assay type: physicochemical; details: aqueous pH 7.00 phosphate buffer with DMSO stock
[2] = Solubility in solvents; assay type: physicochemical
Text: A 2.5 gram sample of a red raspberry seed extract in a dry powder form was split into two fractions, one combined 1.25 grams of the dry extract with 11.25 grams of water to create a 10% aqueous solution of the extract. […] Combining 1.25 grams of the dry extract with about 11.25 grams of isopropyl alcohol (91%) produced an about 10% alcohol solution.
Using pure water was explored in extraction experiments with cranberry seed powder. The advantages of using water are essentially zero cost and toxicity. It is also a very polar solvent and will not extract any residual oils (which are very non-polar compounds) from the seed powders. The limitations of using water are that it gives quite low yields in extractions at room temperature and only dissolved the most polar compounds from the seed powders, leaving most of the medium polarity materials behind. It is possible that this could be improved by heating. […] Simply filtering the mixture through inexpensive filter paper by gravity or mild vacuum will be unsuccessful. One solution that worked was mixing in filtering media (diatomaceous earth) and then vacuum filtering through a bed of the same filtering medium. To completely clarify the mixture, an additional treatment with activated carbon and further vacuum filtering through a bed of diatomaceous earth was effective. Given the limitations of water extraction, it was not used extensively. […]

solubility in the enzyme assay [1]: highly insoluble
solubility in water ([2]; high pH): very water soluble
solubility in water ([2]; neutral pH): only slightly soluble
Structure (SMILES): O=c1oc2c(O)c(O)cc3c(=O)oc4c(O)c(O)cc1c4c23 [ellagic acid]
